Activity calls are given as the source filed them.
What was measured:
Aurora kinase A = target: T1, Aurora kinase A (Homo sapiens, UniProt O14965)
T1 sequence (O14965 whole entry): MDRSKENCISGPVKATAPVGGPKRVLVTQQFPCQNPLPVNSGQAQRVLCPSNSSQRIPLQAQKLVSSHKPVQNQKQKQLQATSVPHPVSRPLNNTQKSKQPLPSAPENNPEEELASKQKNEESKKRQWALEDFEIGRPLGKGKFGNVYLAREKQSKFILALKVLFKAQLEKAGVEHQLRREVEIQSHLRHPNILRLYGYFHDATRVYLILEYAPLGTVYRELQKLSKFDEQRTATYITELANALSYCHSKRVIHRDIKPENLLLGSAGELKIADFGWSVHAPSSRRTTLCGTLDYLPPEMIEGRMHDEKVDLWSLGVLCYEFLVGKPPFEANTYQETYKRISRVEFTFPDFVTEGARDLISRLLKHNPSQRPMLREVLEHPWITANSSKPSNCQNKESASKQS

[1] = target: Cell division cycle 7-related protein kinase (Homo sapiens, UniProt O00311)
Cell division cycle 7-related protein kinase, sequence (O00311 whole entry): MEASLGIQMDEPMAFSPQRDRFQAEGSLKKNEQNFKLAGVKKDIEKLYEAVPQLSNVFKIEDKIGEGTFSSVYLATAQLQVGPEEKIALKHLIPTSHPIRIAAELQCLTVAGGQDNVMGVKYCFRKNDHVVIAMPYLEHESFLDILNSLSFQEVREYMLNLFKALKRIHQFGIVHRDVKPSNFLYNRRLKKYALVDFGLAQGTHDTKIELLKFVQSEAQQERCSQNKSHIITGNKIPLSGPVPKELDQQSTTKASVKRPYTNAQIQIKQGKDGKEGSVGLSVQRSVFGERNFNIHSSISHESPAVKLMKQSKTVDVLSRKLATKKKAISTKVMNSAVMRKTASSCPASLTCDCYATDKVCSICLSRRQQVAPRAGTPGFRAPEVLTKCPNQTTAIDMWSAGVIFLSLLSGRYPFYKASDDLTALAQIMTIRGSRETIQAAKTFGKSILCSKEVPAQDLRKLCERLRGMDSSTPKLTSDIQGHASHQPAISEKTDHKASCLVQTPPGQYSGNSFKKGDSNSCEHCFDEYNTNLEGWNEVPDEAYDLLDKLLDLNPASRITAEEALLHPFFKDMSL

[2] = target: Dual specificity protein kinase CLK2 (Homo sapiens, UniProt P49760)
dCTP pyrophosphatase 1 = target: T2, dCTP pyrophosphatase 1 (Homo sapiens, UniProt Q9H773)
T2 sequence (Q9H773 whole entry): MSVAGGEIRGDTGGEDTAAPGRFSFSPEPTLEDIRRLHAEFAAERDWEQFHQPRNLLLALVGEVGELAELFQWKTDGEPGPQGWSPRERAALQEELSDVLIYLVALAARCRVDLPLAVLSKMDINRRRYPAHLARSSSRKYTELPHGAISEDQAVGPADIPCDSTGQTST

[3] = target: T3, Eukaryotic translation initiation factor 5B (Homo sapiens, UniProt O60841)
T3 sequence (O60841 whole entry): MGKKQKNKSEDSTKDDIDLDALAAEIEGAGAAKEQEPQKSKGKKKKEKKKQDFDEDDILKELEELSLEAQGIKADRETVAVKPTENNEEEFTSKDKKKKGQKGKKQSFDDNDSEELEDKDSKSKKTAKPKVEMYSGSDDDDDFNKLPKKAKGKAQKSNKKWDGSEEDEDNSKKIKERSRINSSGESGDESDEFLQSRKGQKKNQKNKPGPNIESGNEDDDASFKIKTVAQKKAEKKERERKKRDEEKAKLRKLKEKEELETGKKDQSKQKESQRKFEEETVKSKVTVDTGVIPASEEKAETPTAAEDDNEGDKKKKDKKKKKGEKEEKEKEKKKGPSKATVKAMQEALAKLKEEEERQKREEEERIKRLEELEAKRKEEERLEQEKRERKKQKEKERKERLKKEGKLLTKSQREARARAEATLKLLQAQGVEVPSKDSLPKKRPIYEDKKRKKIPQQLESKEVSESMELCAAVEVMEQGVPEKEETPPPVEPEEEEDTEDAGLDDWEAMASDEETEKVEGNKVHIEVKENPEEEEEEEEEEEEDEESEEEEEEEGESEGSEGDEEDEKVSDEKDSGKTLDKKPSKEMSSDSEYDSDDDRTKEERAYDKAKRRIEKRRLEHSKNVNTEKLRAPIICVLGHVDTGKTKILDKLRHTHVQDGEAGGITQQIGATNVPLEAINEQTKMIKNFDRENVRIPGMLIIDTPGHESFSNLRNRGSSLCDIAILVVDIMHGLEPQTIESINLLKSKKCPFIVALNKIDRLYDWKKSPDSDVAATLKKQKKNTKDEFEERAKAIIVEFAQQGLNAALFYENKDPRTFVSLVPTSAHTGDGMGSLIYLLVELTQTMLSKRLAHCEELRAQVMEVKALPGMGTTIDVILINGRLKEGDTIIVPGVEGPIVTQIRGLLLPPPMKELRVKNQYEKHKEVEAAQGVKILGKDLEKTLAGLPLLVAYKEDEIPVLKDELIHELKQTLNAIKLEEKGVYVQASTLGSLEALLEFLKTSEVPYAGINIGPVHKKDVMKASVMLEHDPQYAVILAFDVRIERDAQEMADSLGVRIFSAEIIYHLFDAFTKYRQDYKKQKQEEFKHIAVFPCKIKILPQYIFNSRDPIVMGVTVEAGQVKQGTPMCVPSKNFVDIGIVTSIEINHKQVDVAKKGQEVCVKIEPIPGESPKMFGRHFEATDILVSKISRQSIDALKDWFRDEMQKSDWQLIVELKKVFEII

[4] = target: G protein-coupled receptor kinase 6 (Homo sapiens, UniProt P43250)
[5] = target: Serine/threonine-protein kinase Nek7 (Homo sapiens, UniProt Q8TDX7)
Serine/threonine-protein kinase Nek7, sequence (Q8TDX7 whole entry): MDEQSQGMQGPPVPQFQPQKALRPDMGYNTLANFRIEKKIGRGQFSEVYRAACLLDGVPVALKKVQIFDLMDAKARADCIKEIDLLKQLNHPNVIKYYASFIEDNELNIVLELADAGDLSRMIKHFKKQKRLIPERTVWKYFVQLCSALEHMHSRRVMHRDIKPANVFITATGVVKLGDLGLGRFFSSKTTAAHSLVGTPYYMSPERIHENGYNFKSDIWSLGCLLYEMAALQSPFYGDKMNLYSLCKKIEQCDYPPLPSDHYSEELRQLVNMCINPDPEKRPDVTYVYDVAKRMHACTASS

[6] = target: Receptor-interacting serine/threonine-protein kinase 2 (Homo sapiens, UniProt O43353)
Receptor-interacting serine/threonine-protein kinase 2, sequence (O43353 whole entry): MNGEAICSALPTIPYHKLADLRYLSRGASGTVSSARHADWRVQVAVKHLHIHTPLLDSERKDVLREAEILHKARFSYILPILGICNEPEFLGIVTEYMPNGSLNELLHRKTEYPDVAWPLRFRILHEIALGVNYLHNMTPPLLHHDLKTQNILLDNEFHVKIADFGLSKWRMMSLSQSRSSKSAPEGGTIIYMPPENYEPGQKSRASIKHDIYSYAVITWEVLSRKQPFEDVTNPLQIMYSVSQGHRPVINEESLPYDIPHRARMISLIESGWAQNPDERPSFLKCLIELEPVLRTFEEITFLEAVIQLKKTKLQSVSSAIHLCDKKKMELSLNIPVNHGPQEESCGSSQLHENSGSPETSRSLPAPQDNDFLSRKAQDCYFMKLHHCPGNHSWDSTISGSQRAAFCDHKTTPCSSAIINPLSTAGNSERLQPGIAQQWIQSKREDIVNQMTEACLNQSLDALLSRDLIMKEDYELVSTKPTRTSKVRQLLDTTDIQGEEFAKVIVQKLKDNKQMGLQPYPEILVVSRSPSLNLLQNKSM

Activated CDC42 kinase 1 = Activated CDC42 kinase 1 (Homo sapiens, UniProt Q07912)
[7] = target: Serine/threonine-protein kinase ATR (Homo sapiens, UniProt Q13535)
Serine/threonine-protein kinase ATR, sequence (Q13535 whole entry): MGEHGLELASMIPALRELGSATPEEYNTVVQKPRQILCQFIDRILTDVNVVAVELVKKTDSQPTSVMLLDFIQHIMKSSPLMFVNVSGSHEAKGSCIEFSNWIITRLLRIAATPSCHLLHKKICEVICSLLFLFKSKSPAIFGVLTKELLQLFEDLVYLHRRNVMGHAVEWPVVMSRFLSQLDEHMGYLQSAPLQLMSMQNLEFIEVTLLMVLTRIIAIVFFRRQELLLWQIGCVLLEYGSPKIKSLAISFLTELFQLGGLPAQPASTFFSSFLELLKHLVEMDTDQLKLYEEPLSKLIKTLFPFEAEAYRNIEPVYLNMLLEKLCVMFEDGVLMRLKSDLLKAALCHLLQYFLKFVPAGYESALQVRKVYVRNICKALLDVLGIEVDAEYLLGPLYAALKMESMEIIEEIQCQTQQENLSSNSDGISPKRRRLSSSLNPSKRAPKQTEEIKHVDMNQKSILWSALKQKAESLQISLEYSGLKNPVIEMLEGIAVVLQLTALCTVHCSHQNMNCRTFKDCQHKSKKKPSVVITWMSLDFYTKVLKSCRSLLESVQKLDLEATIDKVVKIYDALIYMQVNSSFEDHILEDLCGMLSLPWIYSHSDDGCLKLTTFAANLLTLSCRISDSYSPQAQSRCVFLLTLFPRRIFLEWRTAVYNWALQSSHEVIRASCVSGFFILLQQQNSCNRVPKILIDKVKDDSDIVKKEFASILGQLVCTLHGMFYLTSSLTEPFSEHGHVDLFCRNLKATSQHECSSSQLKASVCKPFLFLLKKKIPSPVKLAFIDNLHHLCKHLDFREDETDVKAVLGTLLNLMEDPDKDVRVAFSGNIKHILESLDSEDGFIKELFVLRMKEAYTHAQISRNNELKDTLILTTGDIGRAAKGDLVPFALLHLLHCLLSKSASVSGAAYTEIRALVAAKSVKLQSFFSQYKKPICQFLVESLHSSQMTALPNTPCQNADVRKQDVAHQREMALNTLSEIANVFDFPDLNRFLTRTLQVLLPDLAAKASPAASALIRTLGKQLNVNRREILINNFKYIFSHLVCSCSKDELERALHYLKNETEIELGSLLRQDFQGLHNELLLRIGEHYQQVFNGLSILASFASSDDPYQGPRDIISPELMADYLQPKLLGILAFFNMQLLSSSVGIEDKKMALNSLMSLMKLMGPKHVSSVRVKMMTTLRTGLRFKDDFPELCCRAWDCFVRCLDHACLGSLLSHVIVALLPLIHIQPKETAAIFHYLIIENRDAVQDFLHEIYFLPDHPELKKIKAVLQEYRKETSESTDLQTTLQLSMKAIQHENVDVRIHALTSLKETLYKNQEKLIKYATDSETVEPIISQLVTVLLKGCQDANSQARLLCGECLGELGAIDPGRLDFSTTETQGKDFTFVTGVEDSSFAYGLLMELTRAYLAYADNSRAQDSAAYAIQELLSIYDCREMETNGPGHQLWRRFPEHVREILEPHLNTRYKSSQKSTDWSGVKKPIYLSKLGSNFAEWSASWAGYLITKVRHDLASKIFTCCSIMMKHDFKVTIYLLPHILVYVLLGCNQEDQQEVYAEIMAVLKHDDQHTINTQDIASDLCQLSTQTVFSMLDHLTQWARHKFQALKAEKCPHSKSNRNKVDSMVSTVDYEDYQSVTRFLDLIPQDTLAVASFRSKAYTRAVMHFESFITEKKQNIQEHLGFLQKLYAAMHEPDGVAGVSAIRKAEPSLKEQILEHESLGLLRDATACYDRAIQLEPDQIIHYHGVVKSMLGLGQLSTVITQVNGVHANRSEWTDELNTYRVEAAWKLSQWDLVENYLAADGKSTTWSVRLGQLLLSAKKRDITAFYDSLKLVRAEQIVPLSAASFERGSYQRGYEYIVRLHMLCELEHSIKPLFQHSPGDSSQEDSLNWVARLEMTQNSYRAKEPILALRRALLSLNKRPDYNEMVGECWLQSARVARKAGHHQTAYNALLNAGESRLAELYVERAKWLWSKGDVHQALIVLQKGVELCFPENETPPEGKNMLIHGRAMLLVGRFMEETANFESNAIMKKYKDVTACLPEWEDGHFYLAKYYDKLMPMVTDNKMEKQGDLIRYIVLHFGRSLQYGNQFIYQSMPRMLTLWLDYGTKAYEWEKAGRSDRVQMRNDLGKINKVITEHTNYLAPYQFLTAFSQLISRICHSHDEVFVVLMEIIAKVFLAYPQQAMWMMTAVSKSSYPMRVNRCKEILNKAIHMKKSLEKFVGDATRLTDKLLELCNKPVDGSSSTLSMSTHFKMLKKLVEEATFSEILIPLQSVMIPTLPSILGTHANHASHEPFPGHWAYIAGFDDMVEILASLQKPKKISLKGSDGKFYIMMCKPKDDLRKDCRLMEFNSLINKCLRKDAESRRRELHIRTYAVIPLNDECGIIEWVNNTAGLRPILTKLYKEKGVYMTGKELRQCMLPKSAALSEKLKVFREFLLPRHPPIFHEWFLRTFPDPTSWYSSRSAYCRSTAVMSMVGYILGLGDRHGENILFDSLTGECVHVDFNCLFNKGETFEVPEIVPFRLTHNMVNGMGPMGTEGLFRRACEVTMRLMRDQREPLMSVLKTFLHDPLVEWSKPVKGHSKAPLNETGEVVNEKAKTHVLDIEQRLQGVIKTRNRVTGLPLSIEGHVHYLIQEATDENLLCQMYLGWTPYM

Ephrin type-A receptor 7 = Ephrin type-A receptor 7 (Homo sapiens, UniProt Q15375)
Ephrin type-A receptor 7, sequence (Q15375 whole entry): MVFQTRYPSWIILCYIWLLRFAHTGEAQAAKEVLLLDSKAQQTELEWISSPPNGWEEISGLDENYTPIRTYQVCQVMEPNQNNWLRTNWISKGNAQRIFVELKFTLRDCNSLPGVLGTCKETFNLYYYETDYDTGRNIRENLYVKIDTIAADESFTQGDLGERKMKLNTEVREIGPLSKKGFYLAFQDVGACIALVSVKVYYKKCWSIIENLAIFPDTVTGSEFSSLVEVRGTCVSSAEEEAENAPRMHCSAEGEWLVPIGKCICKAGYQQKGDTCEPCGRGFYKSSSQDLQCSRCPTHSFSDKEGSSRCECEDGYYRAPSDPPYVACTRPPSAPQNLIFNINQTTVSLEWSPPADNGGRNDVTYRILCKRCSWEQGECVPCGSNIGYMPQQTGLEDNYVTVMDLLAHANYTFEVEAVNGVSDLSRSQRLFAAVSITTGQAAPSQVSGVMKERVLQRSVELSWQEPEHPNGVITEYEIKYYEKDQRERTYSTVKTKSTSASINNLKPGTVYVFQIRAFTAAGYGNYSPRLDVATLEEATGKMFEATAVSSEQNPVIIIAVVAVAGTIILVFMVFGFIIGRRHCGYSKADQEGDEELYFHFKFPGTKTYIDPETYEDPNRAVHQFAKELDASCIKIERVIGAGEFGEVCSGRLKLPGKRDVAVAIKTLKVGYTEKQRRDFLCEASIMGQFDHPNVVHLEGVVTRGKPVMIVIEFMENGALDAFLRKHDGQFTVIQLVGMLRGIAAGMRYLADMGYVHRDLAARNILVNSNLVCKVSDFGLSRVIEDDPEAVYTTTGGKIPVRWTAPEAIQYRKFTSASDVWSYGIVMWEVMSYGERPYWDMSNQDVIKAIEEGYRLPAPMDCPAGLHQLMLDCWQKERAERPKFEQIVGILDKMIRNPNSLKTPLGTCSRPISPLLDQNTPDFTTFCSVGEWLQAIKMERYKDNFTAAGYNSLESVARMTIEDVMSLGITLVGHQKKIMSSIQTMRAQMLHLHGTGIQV

[8] = target: Hepatocyte growth factor receptor (Homo sapiens, UniProt P08581)
[9] = target: T4, Serine/threonine-protein kinase Nek2 (Homo sapiens, UniProt P51955)
T4 sequence (P51955 whole entry): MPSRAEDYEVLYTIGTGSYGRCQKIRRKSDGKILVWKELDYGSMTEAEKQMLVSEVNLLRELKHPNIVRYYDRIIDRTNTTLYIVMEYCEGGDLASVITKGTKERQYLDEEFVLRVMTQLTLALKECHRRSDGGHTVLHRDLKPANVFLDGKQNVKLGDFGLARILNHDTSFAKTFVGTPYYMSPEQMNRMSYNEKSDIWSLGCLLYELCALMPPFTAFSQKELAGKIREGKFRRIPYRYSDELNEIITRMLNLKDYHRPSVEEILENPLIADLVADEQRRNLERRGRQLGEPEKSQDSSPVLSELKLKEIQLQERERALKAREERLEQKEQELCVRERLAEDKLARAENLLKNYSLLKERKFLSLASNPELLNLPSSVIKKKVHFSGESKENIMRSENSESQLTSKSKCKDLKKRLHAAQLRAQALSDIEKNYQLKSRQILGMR

[10] = target: Serine/threonine-protein kinase PAK 6 (Homo sapiens, UniProt Q9NQU5)
Further: in the data inactive means no Kd found up to 30 µM.

| SMILES | Kd (Aurora kinase A) | Kd [1] | Kd (dCTP pyrophosphatase 1) | Kd [3] | Kd [5] | Kd (Activated CDC42 kinase 1) | Kd [7] | Kd (Ephrin type-A receptor 7) | Kd [8] | Kd [9] | Kd [2] | Kd [4] | Kd [6] | Kd [10] |
| --- | --- | --- | --- | --- | --- | --- | --- | --- | --- | --- | --- | --- | --- | --- |
| CC(C)CC(=O)Nc1[nH]nc2c1CN(C(=O)C1CCN(C)CC1)C2(C)C [PHA-793887] | > 30 µM (inactive) | > 30 µM (inactive) | > 30 µM (inactive) | > 30 µM (inactive) | > 30 µM (inactive) | > 30 µM (inactive) |  |  |  |  | 0.007 µM | > 30 µM (inactive) | > 30 µM (inactive) |  |
| CNC(=O)c1ccc(Nc2ncc(C(F)(F)F)c(NCc3nccnc3N(C)S(C)(=O)=O)n2)cc1 [DEFACTINIB] | 0.622 µM (active) | > 30 µM (inactive) | > 30 µM (inactive) |  |  | > 30 µM (inactive) | > 30 µM (inactive) | > 30 µM (inactive) | > 30 µM (inactive) | > 30 µM (inactive) | > 30 µM (inactive) | > 30 µM (inactive) | > 30 µM (inactive) | > 30 µM (inactive) |
| N#CCNC(=O)c1ccc(-c2ccnc(Nc3ccc(N4CCOCC4)cc3)n2)cc1 [MOMELOTINIB] | > 30 µM (inactive) |  | > 30 µM (inactive) |  | > 30 µM (inactive) | > 30 µM (inactive) |  | > 30 µM (inactive) |  | > 30 µM (inactive) | > 30 µM (inactive) |  | > 30 µM (inactive) |  |
| C=CCN(/C=C1/C(=O)O[C@H](COC)[C@@]2(C)C1=C(O)C(=O)C1=C2[C@H](OC(C)=O)C[C@]2(C)C(=O)CC[C@@H]12)CC=C [SONOLISIB] | > 30 µM (inactive) |  | > 30 µM (inactive) |  | > 30 µM (inactive) | > 30 µM (inactive) |  |  | > 30 µM (inactive) | > 30 µM (inactive) |  |  | > 30 µM (inactive) | > 30 µM (inactive) |

More lines, main results first:

| Kd (Aurora kinase A) | Kd [1] | Kd (dCTP pyrophosphatase 1) | Kd [3] | Kd [5] | Kd (Activated CDC42 kinase 1) | Kd [7] | Kd (Ephrin type-A receptor 7) | Kd [8] | Kd [9] | SMILES | Kd [2] | Kd [4] | Kd [6] | Kd [10] |
| --- | --- | --- | --- | --- | --- | --- | --- | --- | --- | --- | --- | --- | --- | --- |
| > 30 µM (inactive) |  | > 30 µM (inactive) |  | > 30 µM (inactive) | > 30 µM (inactive) | > 30 µM (inactive) | > 30 µM (inactive) | > 30 µM (inactive) | > 30 µM (inactive) | Cc1cc(-c2cc(OC(=O)c3ccccc3)ccc2Cl)cc2nnc(Nc3ccc(OCCN4CCCC4)cc3)nc12 [TG100-801] | > 30 µM (inactive) |  | 0.192 µM (active) |  |
| > 30 µM (inactive) |  | > 30 µM (inactive) |  | > 30 µM (inactive) | > 30 µM (inactive) |  | > 30 µM (inactive) | > 30 µM (inactive) | > 30 µM (inactive) | c1cc(OCCN2CCCCC2)cc(-c2n[nH]c3ccc(-c4nc[nH]n4)cc23)c1 [CC-401] | > 30 µM (inactive) | > 30 µM (inactive) | > 30 µM (inactive) | > 30 µM (inactive) |
| > 30 µM (inactive) | > 30 µM (inactive) | > 30 µM (inactive) | > 30 µM (inactive) | > 30 µM (inactive) | > 30 µM (inactive) | > 30 µM (inactive) | > 30 µM (inactive) | 0.011 µM (active) | > 30 µM (inactive) | CCOc1ccn(-c2ccc(F)cc2)c(=O)c1C(=O)Nc1ccc(Oc2ccnc(N)c2Cl)c(F)c1 [BMS-777607] |  |  | > 30 µM (inactive) |  |
| > 30 µM (inactive) | > 30 µM (inactive) | > 30 µM (inactive) | > 30 µM (inactive) | > 30 µM (inactive) | > 30 µM (inactive) |  | > 30 µM (inactive) | > 30 µM (inactive) | > 30 µM (inactive) | S=C(NCc1ccc2c(c1)OCO2)N1CCN(c2ncnc3c2oc2ccccc23)CC1 [AMUVATINIB] | > 30 µM (inactive) | > 30 µM (inactive) | > 30 µM (inactive) |  |
| > 30 µM (inactive) | > 30 µM (inactive) | > 30 µM (inactive) |  | > 30 µM (inactive) | > 30 µM (inactive) |  | > 30 µM (inactive) |  | > 30 µM (inactive) | CC(C)(O)CC(=O)NCCn1ccc2ncnc(Nc3ccc(Oc4cccc(C(F)(F)F)c4)c(Cl)c3)c21 [TAK-285] |  |  |  |  |

From ChEMBL document CHEMBL3991601, “The target landscape of clinical kinase drugs” (Science, 2017)
